# Source: article PMC12606464, “Investigating NFE2L1 activators for targeted protein aggregate clearance: a follow-up study” (RSC Medicinal Chemistry, 2025)
# System: chymotrypsin-like activity of the 26S proteasome
# Test: Proteasome activity assay in HEK293 cell lysates
# Assay type: cell-based, human
# Details: 7.5 μM, 16 h; for Proteasome chymotrypsin-like activity, geometric mean (treatment): HEK293 lysates, 37 °C, DMSO control = 1; for Proteasome chymotrypsin-like activity, geometric mean of ratios: treatment/control, ratio paired t test, HEK293
# Experimental: Building on previous findings, we investigated how selected RUN compounds influence proteasomal function itself. Specifically, we examined the chymotrypsin-like activity of the 26S proteasome following a 16 hour treatment with 7.5 μM RUN compounds in the HEK293 cell line. […] In addition, two other cell lines, MCF7 and SH-SY5Y, were measured (see the SI, Fig. S6).
# Fig. 3 (A) HEK293 cells were treated with RUN compounds at a concentration of 7.5 μM for 16 hours. DMSO was used as a vehicle control. Proteasome chymotrypsin-like activity was measured in cell lysates at 37 °C. Data came from three biological replicates (n = 3). Statistical analysis was done using ratio paired t-tests corrected for multiple comparisons with Holm–Šídák's method (α = 0.05). *p < 0.05. Detailed results of the analysis are shown in SI Table S7. (B) RUN-89 protects against polyQ-mediated toxicity in an NFE2L1-dependent manner. HCT116 parental cells (WT) and two independent DDI2 knockout clones (KO 04 and KO 11), in which NFE2L1 activation is impaired, were transiently transfected with plasmids encoding non-aggregating EGFP-HttQ23 or aggregation-prone EGFP-HttQ74. Cells were treated with 1 or 3 μM RUN-89 for 48 hours, and viability was measured using the alamarBlue assay. […] Data are shown as the Geomean ± GeoSD from four independent biological replicates (n = 4). Statistical analysis was performed on log2-transformed values using two-way repeated-measures ANOVA followed by Šídak's multiple comparison test. (C right) Parental SH-SY5Y cells (without α-synuclein expression) were treated in the same manner. (C left) The protective effect of RUN compounds was assessed by rotenone-induced α-synuclein proteotoxicity in SH-SY5Y cells, which mimics the PD-like phenotype. Cells were pre-treated with increasing concentrations of RUN compounds (0.312, 0.625, 1.25, and 2.5 μM) for 4 hours and then rotenone (1.125 μM) treatment was done for 24 hours. […]
# 2.7 Proteasome activity assay
# The corresponding cell lines (HEK293, MCF7, or SH-SY5Y) were seeded into 6-well plates and allowed to adhere overnight under standard culture conditions. On the following day, HEK293 cells were treated with 7.5 µM RUN compounds, whereas MCF7 and SH-SY5Y cells were treated with 5 µM RUN compounds, for 16 hours each. After treatment, cells were harvested, resuspended in lysis buffer (50 mM HEPES, pH 7.5; 5 mM EDTA; 150 mM NaCl; 2 mM ATP; 1% Triton), and centrifuged at 15,000 rpm for 15 minutes at 4 °C. The resulting lysates (25 µg total protein) were incubated with 200 µM of the fluorogenic substrate Suc-Leu-Leu-Val-Tyr-AMC (Bachem, I1395) in assay buffer (50 mM Tris, pH 8.0; 10 mM MgCl₂; 1 mM ATP; 1 mM DTT) at 37 °C. Free AMC release was detected by measuring fluorescence at 360/460 nm. […]
# HEK293 cells were seeded in 6-well plates and incubated for 24 hours before being transfected with a plasmid containing the CMV-XBP-Gluc reporter using Lipofectamine 2000.(4) After 6 hours, the transfected cells were subsequently transferred to 384-well plates, stabilized overnight, and treated with the proteasome inhibitor and ER stress inducer MG132 and/or various concentrations of RUN compounds (1, 5, and 10 µM) or vehicle (DMSO) for 16 hours. Luciferase activity was normalized to cell viability, which was assessed using the alamarBlue assay. The results are expressed as the fold change compared with the DMSO control, with the experiment conducted in biological triplicate. […]
SMILES,"Proteasome chymotrypsin-like activity, geometric mean (treatment)","Proteasome chymotrypsin-like activity, geometric mean of ratios"
COc1ccc(/C=C2\CC(NC(=O)c3ccccn3)C/C(=C\c3ccc(OC)c(OC)c3)C2=O)cc1OC (centres unmarked) [RUN-94],1.21,1.21
COc1ccc(/C=C2\CC(NC(=O)C3CCCC3)C/C(=C\c3ccc(OC)c(OC)c3)C2=O)cc1OC (centres unmarked) [RUN-89],–,1.36
COc1ccc(/C=C2\CC(N)C/C(=C\c3ccc(OC)c(OC)c3)C2=O)cc1OC (centres unmarked) [RUN-81],1.21,1.21
